Assay results reported in US20150051202A1, “TRIAZOLOPYRAZINE DERIVATIVES” (Merck Patent GmbH, priority 2012, published 2015).
Marks after values point to notes of the source that are not given here.

Assays:
SYK = biological target: T1, SYK (Homo sapiens, UniProt P43405); assay: SYK enzyme assay (Flash plate assay / Caliper mobility shift assay); assay type: biochemical; conditions: for SYK (enzyme assay) % at 3 μM: 100% corresponds to zero effect, −50% corresponds to IC50
T1 construct: purchased BPS Bioscience, CA, USA
Protocol: The kinase assay is performed either as 384-well Flashplate assay (for e.g. Topcount measurement) or as 384-well Image-Flashplate assay (for LEADseeker measurement).
2.5 nM SYK, 400 nM Biotin-Aha-Aha-[…]
and 10 μM ATP (spiked with 0.3 μCi 33P-ATP/well) are incubated in a total volume of 50 μl (60 mM Hepes, 10 mM MgCl2, 1.2 mM Dithiothreitol, 0.02% Brij35, 0.1% BSA, pH 7.5) with or without test compound for 1 hours at 30° C. The reaction is stopped with 25 μl 200 mM EDTA. After 30 Min at 30° C. the liquid is removed and each well washed thrice with 100 μl 0.9% sodium chloride solution. Non-specific reaction is determined in presence of 0.1 μM Staurosporine. Radioactivity is measured with Topcount (when using Flashplates) or with LEADseeker (when using Image-Flashplates) respectively. Results (e.g. IC50-values) are calculated with program tools provided by the IT-department (e.g. Symyx Assay Explorer, Genedata Screener).
Enzymatic Assays Using the Caliper LifeSciences Technology
The assays described here are performed on the Caliper Life Sciences LC3000 system This technology provides data on enzyme activity via measurement of the relative amounts of phosphorylated or unphosphorylated fluorescently labelled substrate peptide at the end of an enzymatic reaction.
These different states of peptide are resolved by applying a potential difference across the sample. The presence of the charged phosphate group on the product (as opposed to the substrate) causes a different peptide mobility between the two peptides. This is visualized by excitation of the fluorescent label on the substrate and product peptides and represented as peaks within the analysis software.
In order to measure inhibitor activity of kinase inhibitors on this technology, a TTP Mosquito liquid handling instrument is used to place 0.25 ul of the appropriate concentration of inhibitor in 100% DMSO (for a dose response curve calculation) into each well of a 384-well plate. To this reaction components are added to a final volume of 25 ul. The table below indicates the sequences and concentrations for the assays described in this report. Standard components are 1 mM DTT (Sigma, D0632), 1 mM MgCl2 (Sigma, M1028), 100 mM HEPES pH 7.5 (Calbiochem, 391338), 0.015% Brij-35 (Sigma, B4184).
The reaction is incubated for 90 min at 25 C, and then stopped by the addition of 70 ul of Stop buffer (100 mM HEPES pH 7.5, 0.015% Brij-35, 10 mM EDTA (Sigma, E7889)).
The plate is read on a Caliper LC 3000 in an Off-Chip mobility shift assay format, on a 12-sipper chip. Unphosphorylated substrate and phosphorylated product peptide resolve as separate peaks allowing direct measurement of percentage of conversion of substrate to product. The percent conversion can be plotted against concentration of inhibitor to produce a sigmoidal dose response curve, from which an IC50 can be calculated using GeneData Condoseo or a similar product.

GCN2 = GCN2 (Homo sapiens, UniProt Q9P2K8); assay: GCN2 enzyme assay (TR-FRET Lanthascreen, GFP-eIF2alpha substrate); assay type: biochemical
Chain of GCN2 (Q9P2K8 whole entry): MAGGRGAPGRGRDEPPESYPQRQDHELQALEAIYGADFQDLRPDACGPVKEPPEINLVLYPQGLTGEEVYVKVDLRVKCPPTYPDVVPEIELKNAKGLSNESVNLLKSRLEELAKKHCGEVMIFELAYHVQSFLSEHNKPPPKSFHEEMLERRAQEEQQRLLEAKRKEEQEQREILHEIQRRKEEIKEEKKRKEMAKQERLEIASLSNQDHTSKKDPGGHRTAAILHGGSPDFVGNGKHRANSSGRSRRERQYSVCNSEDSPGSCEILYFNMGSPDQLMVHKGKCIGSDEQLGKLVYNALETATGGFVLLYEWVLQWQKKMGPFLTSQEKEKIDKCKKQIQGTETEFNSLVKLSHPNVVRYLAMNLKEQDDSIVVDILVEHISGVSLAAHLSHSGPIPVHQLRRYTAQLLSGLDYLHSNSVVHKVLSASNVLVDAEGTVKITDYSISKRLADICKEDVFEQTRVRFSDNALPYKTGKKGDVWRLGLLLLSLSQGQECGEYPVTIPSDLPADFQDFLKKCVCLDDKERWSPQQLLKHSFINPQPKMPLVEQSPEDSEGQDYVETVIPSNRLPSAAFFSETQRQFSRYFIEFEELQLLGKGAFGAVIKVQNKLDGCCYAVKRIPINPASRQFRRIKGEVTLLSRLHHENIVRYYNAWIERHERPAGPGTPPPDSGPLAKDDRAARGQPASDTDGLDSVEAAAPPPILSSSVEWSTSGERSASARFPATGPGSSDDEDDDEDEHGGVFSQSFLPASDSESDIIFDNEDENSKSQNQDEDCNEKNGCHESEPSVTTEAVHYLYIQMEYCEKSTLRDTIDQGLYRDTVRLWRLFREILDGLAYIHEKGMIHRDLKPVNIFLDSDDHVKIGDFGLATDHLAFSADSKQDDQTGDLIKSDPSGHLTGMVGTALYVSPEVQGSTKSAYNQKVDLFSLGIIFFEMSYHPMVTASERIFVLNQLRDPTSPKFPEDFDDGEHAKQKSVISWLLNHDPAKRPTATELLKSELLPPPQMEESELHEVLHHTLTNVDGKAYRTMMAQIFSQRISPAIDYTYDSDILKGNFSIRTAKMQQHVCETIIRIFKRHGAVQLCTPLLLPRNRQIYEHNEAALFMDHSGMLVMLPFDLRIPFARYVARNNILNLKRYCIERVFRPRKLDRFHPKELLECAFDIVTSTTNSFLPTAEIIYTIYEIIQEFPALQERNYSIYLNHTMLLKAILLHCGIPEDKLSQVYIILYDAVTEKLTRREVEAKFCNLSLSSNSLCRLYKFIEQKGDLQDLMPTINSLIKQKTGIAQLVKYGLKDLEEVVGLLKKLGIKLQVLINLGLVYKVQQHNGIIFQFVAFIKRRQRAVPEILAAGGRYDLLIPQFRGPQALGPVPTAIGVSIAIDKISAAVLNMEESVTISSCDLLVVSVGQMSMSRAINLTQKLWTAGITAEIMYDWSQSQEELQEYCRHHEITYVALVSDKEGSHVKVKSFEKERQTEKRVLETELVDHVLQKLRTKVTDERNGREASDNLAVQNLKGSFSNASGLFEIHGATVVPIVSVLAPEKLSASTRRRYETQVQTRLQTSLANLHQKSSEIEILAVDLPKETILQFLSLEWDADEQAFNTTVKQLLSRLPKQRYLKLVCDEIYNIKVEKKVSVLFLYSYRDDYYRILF
Text: GCN2: Assay Principle & Conditions
This assay can quantificate the activity of the serin kinase GCN2 (general control non-derepressible-2).
This kinase is involved in the stress metabolism of cells. It is activated upon starvation (amino acid depletion). Its natural substrate is eIF2a (eukaryotic initiation factor 2 alpha subunit), a translation factor, which gets activated (phosphorylated) by GCN2 in case of an amino acid bottleneck in the cells. This in turn leads to a halt of the protein synthesis. Inhibition of GCN2 results in stopping this mechanism: The cell can not stop protein production upon “starvation” stress.
The assay is run in two steps: the enzymatic reaction and the detection step. In the first step GCN2 is incubated with 10 μM ATP and 80 nM of the GFP-labelled substrate eIF2alpha at room temperature.
The enzymatic reaction is stopped by addition of EDTA. The amount of phosphorylated eIF2alpha is determined by TR-FRET (Lanthascreen): A complex is formed consisting of antibody and GFP labelled phospho-eIF2a, which allows a FRET upon exitation at 340 nm.
Final Concentrations in the Enzymatic Reaction • Hepes, pH 7.0 50 mM • MgCl2 10 mM • MnCl2 5 mM • BSA 0.1% • DMSO 1% • ATP 10 uM • DTT 2 mM • GFP-eIF2a 80 nM (substrate) • GCN2 30 nM (enzyme)

SYK (enzyme assay) % at 3 μM (SYK)	IC50 (GCN2) [nM]	IC50 (SYK) [nM]	SMILES
−18@3 * %	5000 to 10000		Cn1ncc2cc(-c3cncc4nc(Nc5ccc(S(C)(=O)=O)cc5)nn34)ccc21 [Compound A1, (4-methanesulfonyl-phenyl)-[5-(1-methyl-1H-indazol-5-yl)-[1,2,4]triazolo[1,5-a]pyrazin-2-yl]-amine]
−29@3%	< 1000		COc1cccc(Nc2nc3cncc(-c4ccc5c(cnn5C)c4)n3n2)c1 [Compound A2]
−9@3%	1000 to 5000		Cn1ncc2cc(-c3cncc4nc(Nc5cccnc5)nn34)ccc21 [Compound A3, [5-(1-methyl-1H-indazol-5-yl)-[1,2,4]triazolo[1,5-a]pyrazin-2-yl]-pyridin-3-yl-amine]
	< 1000	< 1000	Cc1cc(Nc2nc3cncc(-c4ccc5c(cnn5C)c4)n3n2)ccc1N1CCN(C)CC1 [Compound A4, [5-(1-methyl-1H-indazol-5-yl)-[1,2,4]triazolo[1,5-a]pyrazin-2-yl]-[3-methyl-4-(4-methyl-piperazin-1-yl)-phenyl]-amine]
	1000 to 5000	< 1000	Cn1ncc2cc(-c3cncc4nc(Nc5ccc6c(c5)NC(=O)C6(C)C)nn34)ccc21 [Compound A5, 3,3-dimethyl-6-[5-(1-methyl-1H-indazol-5-yl)-[1,2,4]triazolo[1,5-a]pyrazin-2-ylamino]-1,3-dihydro-indol-2-one]
	< 1000	1000 to 5000	CN(C)Cc1nc2cc(Nc3nc4cncc(-c5ccc6c(cnn6C)c5)n4n3)ccc2[nH]1 [Compound A6, (2-dimethylaminomethyl-1H-benzoimidazol-5-yl)-[5-(1-methyl-1H-indazol-5-yl)-[1,2,4]triazolo[1,5-a]pyrazin-2-yl]-amine]
	5000 to 10000	1000 to 5000	NS(=O)(=O)c1cccc(Nc2nc3cncc(-c4cnc5ccccc5c4)n3n2)c1 [Compound A7, 3-(5-quinolin-3-yl-[1,2,4]triazolo[1,5-a]pyrazin-2-ylamino)-benzenesulfonamide]
	1000 to 5000	1000 to 5000	Cc1cc(Nc2nc3cncc(-c4cnc5ccccc5c4)n3n2)ccc1N1CCN(C)CC1 [Compound A8, [3-methyl-4-(4-methyl-piperazin-1-yl)-phenyl]-(5-quinolin-3-yl-[1,2,4]triazolo[1,5-a]pyrazin-2-yl)-amine]
	1000 to 5000	1000 to 5000	CC1(C)C(=O)Nc2cc(Nc3nc4cncc(-c5cnc6ccccc6c5)n4n3)ccc21 [Compound A9, 3,3-dimethyl-6-(5-quinolin-3-yl-[1,2,4]triazolo[1,5-a]pyrazin-2-ylamino)-1,3-dihydro-indol-2-one]
	< 1000	1000 to 5000	CN(C)Cc1nc2cc(Nc3nc4cncc(-c5cnc6ccccc6c5)n4n3)ccc2[nH]1 [Compound A10, (2-dimethylaminomethyl-1H-benzoimidazol-5-yl)-(5-quinolin-3-yl-[1,2,4]triazolo[1,5-a]pyrazin-2-yl)-amine]
	1000 to 5000	1000 to 5000	Cn1cc(-c2cncc3nc(Nc4ccc(S(C)(=O)=O)cc4)nn23)cn1 [Compound A11, (4-methanesulfonyl-phenyl)-[5-(1-methyl-1H-pyrazol-4-yl)-[1,2,4]triazolo[1,5-a]pyrazin-2-yl]-amine]
	< 1000		Cn1cc(-c2cncc3nc(Nc4cccnc4)nn23)cn1 [Compound A12, [5-(1-methyl-1H-pyrazol-4-yl)-[1,2,4]triazolo[1,5-a]pyrazin-2-yl]-pyridin-3-yl-amine]
	1000 to 5000		Fc1cccc(Nc2nc3cnc(Cl)cn3n2)c1 [Compound A19]
	1000 to 5000		Fc1ccc(Nc2nc3cnc(Cl)cn3n2)cc1 [Compound A21]
	1000 to 5000		COc1cccc(Nc2nc3cnc(C#N)cn3n2)c1 [Compound A23]
1@3%			COc1cccc(Nc2nc3cnc(C)cn3n2)c1 [Compound A24, (3-methoxy-phenyl)-(6-methyl-[1,2,4]triazolo[1,5-a]pyrazin-2-yl)-amine]
	1000 to 5000		Fc1ccc(Nc2cn3nc(Nc4cccnc4)nc3cn2)cc1 [Compound A29, N6-(4-fluoro-phenyl)-N2-pyridin-3-yl-[1,2,4]triazolo[1,5-a]pyrazine-2,6-diamine]
	1000 to 5000		c1cnc2ccc(-c3cncc4nc(Nc5ccc(N6CCOCC6)cc5)nn34)cc2c1 [Compound A33, (4-morpholin-4-yl-phenyl)-(5-quinolin-6-yl-[1,2,4]triazolo[1,5-a]pyrazin-2-yl)-amine]
	< 1000		Cn1ncc2cc(-c3cncc4nc(Nc5ccc6c(c5)CC(=O)N6)nn34)ccc21 [Compound A38, 5-[5-(1-methyl-1H-indazol-5-yl)-[1,2,4]triazolo[1,5-a]pyrazin-2-ylamino]-1,3-dihydro-indol-2-one]
	< 1000		Cn1ncc2cc(-c3cncc4nc(Nc5cccc(S(N)(=O)=O)c5)nn34)ccc21 [Compound A39, 3-[5-(1-methyl-1H-indazol-5-yl)-[1,2,4]triazolo[1,5-a]pyrazin-2-ylamino]-benzenesulfonamide]
	< 1000		Cc1cc(Nc2nc3cncc(-c4ccc(C(C)(C)C#N)cc4)n3n2)ccc1N1CCN(C)CC1 [Compound A40, 2-methyl-2-(4-{2-[3-methyl-4-(4-methyl-piperazin-1-yl)-phenylamino]-[1,2,4]triazolo[1,5-a]pyrazin-5-yl}-phenyl)-propionitrile]
	< 1000		Cn1cc(-c2cncc3nc(Nc4ccc5c(c4)CC(=O)N5)nn23)cn1 [Compound A41, 5-[5-(1-methyl-1H-pyrazol-4-yl)-[1,2,4]triazolo[1,5-a]pyrazin-2-ylamino]-1,3-dihydro-indol-2-one]
	< 1000		Cc1cc(Nc2nc3cncc(-c4cnn(C)c4)n3n2)ccc1N1CCN(C)CC1 [Compound A42, 5-(1-methyl-1H-pyrazol-4-yl)-N-(3-methyl-4-(4-methylpiperazin-1-yl)phenyl)-[1,2,4]triazolo[1,5-a]pyrazin-2-amine]
	< 1000		Cc1cc(Nc2nc3cncc(-c4cccc(NS(C)(=O)=O)c4)n3n2)ccc1N1CCN(C)CC1 [Compound A43, N-(3-(2-((3-methyl-4-(4-methylpiperazin-1-yl)phenyl)amino)-[1,2,4]triazolo[1,5-a]pyrazin-5-yl)phenyl)methanesulfonamide]
	1000 to 5000		Cc1cc(Nc2nc3cncc(-c4cccc(C(N)=O)c4)n3n2)ccc1N1CCN(C)CC1 [Compound A54, 3-{2-[3-methyl-4-(4-methyl-piperazin-1-yl)-phenylamino]-[1,2,4]triazolo[1,5-a]pyrazin-5-yl}-benzamide]
	< 1000		CN1CCN(c2ccc(Nc3nc4cncc(-c5cnn(C)c5)n4n3)cn2)CC1 [Compound A90, [6-(4-methyl-piperazin-1-yl)-pyridin-3-yl]-[5-(1-methyl-1H-pyrazol-4-yl)-[1,2,4]triazolo[1,5-a]pyrazin-2-yl]-amine]
	1000 to 5000		CNS(=O)(=O)c1cccc(-c2cncc3nc(Nc4ccc(N5CCN(C)CC5)c(OC)c4)nn23)c1 [Compound A96, 3-{2-[3-methoxy-4-(4-methyl-piperazin-1-yl)-phenylamino]-[1,2,4]triazolo[1,5-a]pyrazin-5-yl}-N-methyl-benzenesulfonamide]
